These results are taken from patent publication US5446056A, “Isoxazoline compounds useful as fibrinogen receptor antagonists” (The Du Pont Merck Pharmaceutical Company, priority 1994, dated 1995).

For the assay, the system named is human platelet rich plasma. Nature of the assay: Platelet aggregation assay (platelet rich plasma, PRP). It is filed as cell-based. The settings on record: concentration which inhibits platelet aggregation by 50% relative to control, ester prodrugs preincubated with porcine liver esterase, ADP-induced. The procedure: Platelet Aggregation Assay: Venous blood was obtained from the arm of a healthy human donor who was drug-free and aspirin-free for at least two weeks prior to blood collection. Blood was collected into 10 mL citrated Vacutainer tubes. The blood was centrifuged for 15 minutes at 150×g at room temperature, and platelet-rich plasma (PRP) was removed. The remaining blood was centrifuged for 15 minutes at 1500×g at room temperature, and platelet-poor plasma (PPP) was removed. Samples were assayed on a aggregometer (PAP-4 Platelet Aggregation Profiler), using PPP as the blank (100% transmittance). 200 μL of PRP was added to each micro test tube, and transmittance was set to 0%. 20 μL of various agonists (ADP, collagen, arachidonate, epinephrine, thrombin) were added to each tube, and the aggregation profiles were plotted (% transmittance versus time). The results are expressed as % inhibition of agonist-induced platelet aggregation. […] Percent inhibition is calculated using percent aggregation in the presence of the test compound divided by percent aggregation of control, times 100. […]
Platelet Aggregation Assay; Venous blood was obtained from the arm of a healthy human donor who was drug-free and aspirin-free for at least two weeks prior to blood collection. […] The results are expressed as % inhibition of agonist-induced platelet aggregation. […]

Structures are written as SMILES.

Broadly, the IC50 is the midpoint of a concentration-inhibition curve. `CCNC(=N)c1ccc(C2=NOC(CC(=O)NCCC(=O)O)C2)cc1` (racemic) [Example 23, 5(R,S)-3-[3-(4-N-ethylamidinophenyl)isoxazolin-5-ylacetyl]aminopropanoic acid]: the 50% inhibitory concentration (IC50) was less than 10 µM.
